Data from a melting point compilation (Tetko et al.; mined from patent text by program, amines drawn as free bases though some values may be those of a salt).

First: O=C(O)Cc1ccc2oc(-c3ccc(N4C=CC=CN4c4ccc(-c5nc6cc(CC(=O)O)ccc6o5)cc4)cc3)nc2c1
Second: COc1ccc(Cn2nnc(-c3ccc(OC)c(C(=O)NCc4ccc(F)cc4)c3)n2)cc1
The melting point of the first is higher: greater than 300 °C for the first, 156 to 158 °C for the second.

First: COC(=O)c1cc(OCc2nc(-c3ccccc3)oc2C)no1
Second: O=C(O)c1cccnc1Cc1ccccc1
The melting point of the first is lower: 123 to 124 °C for the first, 180 to 182 °C for the second.

First: O=[N+]([O-])c1ccc(S(=O)(=O)Nc2ccc(F)cc2)c([N+](=O)[O-])c1
Second: CCC1C(=O)Nc2c(C(=O)c3ccc(Cl)cc3)cccc21 (centres undefined)
The melting point of the first is lower: 127 to 128 °C for the first, 140 to 145 °C for the second.

Compared with `CNc1cc(Cl)c(CO)c(Cl)c1`, `O=C(NCCSCc1cccc(C(F)(F)F)c1)c1c(Cl)cccc1Cl` is lower in melting point: 108 to 111 °C for the first, 54 to 55 °C for the second.

First: CCOC(C)O[C@H]1C(=O)N[C@H]1c1ccccc1 (some centres undefined)
Second: CC(C)OC(=O)CCN=c1sc2ccccc2s1
The melting point of the first is higher: 78 to 80 °C for the first, 60 to 61 °C for the second.

First: Nc1nc2ccc(OCC(F)(F)C(F)(F)F)cc2s1
Second: O=C(Nc1c(C(O)(C(F)(F)F)C(F)(F)F)ccc2ccccc12)c1cccs1
The melting point of the first is lower: 147 °C for the first, 191 to 192 °C for the second.

Compared with `CN(C)C=Cc1nc2ccccc2c(=O)n1-c1ccccc1Cl`, `N#Cc1cnc2c(oc3ccccc32)c1Nc1ccc(Oc2ccccc2)cc1` is lower in melting point: 228 to 230 °C for the first, 175 to 179 °C for the second.

Compared with `COc1ccc(/C=C(\C#N)c2ccc(Cl)cc2)cc1OC1CCCC1`, `CNC(=O)c1ccc(C2=N[C@H]3CCCC[C@H]3c3cc(OC)c(OC)cc32)cc1` (racemic) is higher in melting point: 129 to 137 °C for the first, 209 to 211 °C for the second.

First: CCO/N=C(/CC)c1ccc(Cl)c2nc3n(c12)CCCN3c1ccc(Cl)cc1Cl
Second: CCCc1nc(N)nc(N)c1N1CCN(Cc2ccccc2)CC1
The melting point of the first is lower: 140 to 141 °C for the first, 157 to 160 °C for the second.

Compared with `CC1CC(=O)NN=C1c1ccc(NC(=O)CCNCC(O)COc2ccc(CCOCC3CC3)cc2)cc1` (centres undefined), `COc1ccc(/C=C/C(=O)c2ccc(CC3SC(=O)NC3=O)cc2)cc1` (centres undefined) is higher in melting point: 54 to 56 °C for the first, 177 to 180 °C for the second.

First: CCc1c(-c2ccc(O)cc2)c2cc(COCCN(CC)CC)c3cccc1n32
Second: CC(C)(C)OC(=O)COCCCCCCn1nc(-c2ccccc2)c(-c2ccccc2)c1-c1ccccc1
The melting point of the first is higher: 93 to 95 °C for the first, 69 to 72 °C for the second.

First: CC(=O)Oc1c(Cl)c(C(C)(C)C)oc(=O)c1-c1c(C)cc(C)cc1C
Second: CC(=O)Oc1cc(C)cc(C(=O)Cl)c1C
The melting point of the first is higher: 116 to 118 °C for the first, 52 to 54 °C for the second.

First: Cc1cc([N+](=O)[O-])c2c(c1Cl)CC(C)O2 (centres undefined)
Second: CC(C)c1ccc2c(c1)C=C(/C=C/C=C/C=C/C(=O)O)CO2
The melting point of the first is lower: 114 to 116 °C for the first, 244 to 246 °C for the second.

First: O=C(/C=C/[C@@H]1[C@H]2CC(=O)O[C@H]2C[C@H]1OC(=O)c1ccc(-c2ccccc2)cc1)COc1cccc(C(F)(F)F)c1
Second: COc1cc(OC)c(-c2cc3ccccc3n2C)cc1C=CC(=O)c1ccc(S(N)(=O)=O)cc1
The melting point of the first is lower: 115 to 116 °C for the first, 148 to 150 °C for the second.

Compared with `ClCc1c(Br)c(Br)c(CCl)c(Br)c1Br`, `CCCCc1nc2ccccn2c(=O)c1-c1ccc2[nH]ccc2c1` is lower in melting point: 232 to 233 °C for the first, 132 to 135 °C for the second.

First: CC(C)c1cccc(C(C)C)c1N1C(=O)c2cccc3c(C(N)=O)ccc(c23)C1=O
Second: CC(C)C[C@@H](C#N)NC(=O)[C@@H]1CCCC[C@@H]1NC(=O)c1cc2ccccc2n1CC(C)(C)O
The melting point of the first is higher: 233 °C for the first, 102 to 106 °C for the second.

Compared with `CCn1c2ccc(C=NNc3ccccc3)cc2c2cc(C=NNc3ccccc3)ccc21`, `O=C1SC(Cc2ccc(OCCc3c[nH]c4ccccc34)cc2)C(=O)N1C(c1ccccc1)(c1ccccc1)c1ccccc1` (centres undefined) is lower in melting point: 119 to 120 °C for the first, 81 to 82.5 °C for the second.

First: NCC(CC(=O)O)C1CCC1 (centres undefined)
Second: CCCC(SCC(=O)O)c1ccc2c(c1)OCO2 (centres undefined)
The melting point of the first is higher: 115 to 117 °C for the first, 59 to 61 °C for the second.

Compared with `CCCCCCCCCCCCCCSc1ccc(C(=O)O)s1`, `CCCCCCCCCCCCCCCCCCOc1cc(O)cc(C(=O)OCc2ccccc2)c1` is lower in melting point: 106 to 108 °C for the first, 72 to 75 °C for the second.

For `c1ccc(N2CCN(CCc3cc4ccccc4[nH]3)CC2)cc1`, the melting point was 184 to 186 °C.
